Results reported in ChEMBL document CHEMBL4651402, “Screening of ~5500 FDA-approved drugs and clinical candidates for anti-SARS-CoV-2 activity” (2021).

Test system: SARS-CoV-2
Test: microbe, parasite or virus in culture
Details: Severe acute respiratory syndrome coronavirus 2, Vero C1008, 48 h

| Compound | IC50 | IC50 (read-out: pIC50 (converted)) |
| --- | --- | --- |
| CC(=O)OC1CC(OC2C(O)CC(OC3C(O)CC(OC4CCC5(C)C(CCC6C5CC(O)C5(C)C(C7=CC(=O)OC7)CCC65O)C4)OC3C)OC2C)OC(C)C1OC1OC(CO)C(O)C(O)C1O (stereo not drawn) | > 20 µM | > 20 µM |
| CC(C)=CCC[C@@](C)(O)[C@H]1CC=C(C)CC1 | > 20 µM | > 20 µM |
| COCCOCCOCCOCCOC(=O)OC[n+]1ccc(N/C(=N/CCCCCCOc2ccc(Cl)cc2)NC#N)cc1 | > 20 µM | > 20 µM |
| O=C(Nc1ccc(C(=O)N2C[C@H]3COCCN3Cc3ccccc32)c(Cl)c1)c1ccccc1-c1ccccc1 | > 20 µM | > 20 µM |
| CC(C)[C@@H](N)C(=O)O | > 20 µM | > 20 µM |
| COc1ccc2c(c1)CN(C(=O)CCN1CCC(Cc3ccccc3)CC1)CCS2 | > 20 µM | > 20 µM |
| C[N+](C)(C)NCCC(=O)O | > 20 µM | > 20 µM |
| CN(C)CCc1c[nH]c2ccccc12 | > 20 µM | > 20 µM |
| CCN(c1ccccc1)c1cc(NC)[n+](C)c(C)n1 | > 20 µM | > 20 µM |
| C[C@@H]1CCC[C@H](C)N1 | > 20 µM | > 20 µM |
| CC(=O)OC1CCC2C3CCc4cc(O)ccc4C3CCC12C (stereo not drawn) | > 20 µM | > 20 µM |
| COc1c(O)cc2c(c1O)C1OC(CO)C(O)C(O)C1OC2=O (stereo not drawn) | > 20 µM | > 20 µM |
| CC(C)NCC(O)c1cc(O)cc(O)c1 (stereo not drawn) | > 20 µM | > 20 µM |
| c1ccc2c(c1)CCCc1cc(NCCN3CCOCC3)nnc1-2 | > 20 µM | > 20 µM |
| C[N+]1([O-])[C@@H]2C[C@@H](OC(=O)[C@H](CO)c3ccccc3)C[C@H]1[C@@H]1O[C@@H]12 (stereo partly drawn) | > 20 µM | > 20 µM |
| COC(=O)CC(O)(CCC(C)(C)O)C(=O)OC1C(OC)=CC23CCCN2CCc2cc4c(cc2C13)OCO4 (stereo not drawn) | > 20 µM | > 20 µM |
| CC(=O)SCCC(=O)N1C(C)CCCC1C(=O)O (stereo not drawn) | > 20 µM | > 20 µM |
| Cc1cn([C@@H]2C[C@H](O)[C@@H](CO)O2)c(=O)[nH]c1=O | > 20 µM | > 20 µM |
| O[C@@H](CNC[C@H](O)[C@H]1CCc2cc(F)ccc2O1)[C@@H]1CCc2cc(F)ccc2O1 | > 20 µM | > 20 µM |
| O=c1[nH]c(=O)n(C2CC(O)C(CO)O2)cc1I (stereo not drawn) | > 20 µM | > 20 µM |
| CC(C)=CCC/C(C)=C/COc1ccc2ccc(=O)oc2c1 | > 20 µM | > 20 µM |
| COc1ccc(-c2ccc(N)[n+](CCCC(=O)O)n2)cc1 | > 20 µM | > 20 µM |
| COc1cccc(-c2cc(=O)c3ccccc3o2)c1N | > 20 µM | > 20 µM |
| CO/N=C(\C(=O)N[C@@H]1C(=O)N2C(C(=O)O)=C(C[N+]3(C)CCCC3)CS[C@H]12)c1csc(N)n1 | > 20 µM | > 20 µM |
| CC(CCC(=O)O)C1CCC2C3C(=O)CC4CC(=O)CCC4(C)C3CC(=O)C12C (stereo not drawn) | > 20 µM | > 20 µM |
| COc1ccc(CN(C(=O)[C@@H](N)Cc2c(C)cc(C(N)=O)cc2C)[C@H](C)c2nc(-c3ccccc3)c[nH]2)cc1C(=O)O | > 20 µM | > 20 µM |
| Clc1ccc(OC[C@@H]2CCN2)cn1 | > 20 µM | > 20 µM |

| Compound | IC50 | IC50 (read-out: pIC50 (converted)) |
| --- | --- | --- |
| Nc1c(O)cccc1C(=O)CC(N)C(=O)O (stereo not drawn) | > 20 µM | > 20 µM |
| CCC[C@@H]1C[C@@H](C(=O)N[C@@H]([C@H]2O[C@H](SC)[C@H](O)[C@@H](O)[C@@H]2O)[C@@H](C)O)N(C)C1 | > 20 µM | > 20 µM |
| CC12CCC(=O)C=C1CCC1C3CCC(O)(C(=O)CO)C3(C)CC(O)C12F (stereo not drawn) | > 20 µM | > 20 µM |
| COC1COCCC1N[C@@H]1CC[C@@](C(=O)N2CCc3ncc(C(F)(F)F)cc3C2)(C(C)C)C1 (stereo partly drawn) | > 20 µM | > 20 µM |
| CCC(CCC(C)C1CCC2C3CC[C@H]4CC(O)CCC4(C)C3CCC12C)C(C)C (stereo partly drawn) | > 20 µM | > 20 µM |
| CCOC(=O)Nc1ccc(SCC2CO[C@](Cn3ccnc3)(c3ccc(Cl)cc3Cl)O2)cc1 (stereo partly drawn) | > 20 µM | > 20 µM |
| CC(C)(C)C(O)(COc1ccc(Cl)cc1)Cn1cncn1 (stereo not drawn) | > 20 µM | > 20 µM |
| CC12CCC(=O)C=C1C=CC1C2CCC2(C)C1CCC2(O)CCC(=O)O (stereo not drawn) | > 20 µM | > 20 µM |
| CCOC(=O)CN1CCN(C(=O)C=Cc2cc(OC)c(OC)c(OC)c2)CC1 | > 20 µM | > 20 µM |
| CCC[C@H](c1ccc(C(=O)NCCC(=O)O)cc1)[C@@H](c1ccc(Cl)cc1)c1c[nH]c2c(F)cc(C)cc12 | > 20 µM | > 20 µM |
| COC(=O)[C@H](C)N[P@](=O)(OC[C@H]1O[C@@H](n2cc(/C=C/Br)c(=O)[nH]c2=O)C[C@@H]1O)Oc1ccccc1 | > 20 µM | > 20 µM |
| CC12CCC3C(CCC4CC(N)C(O)CC43C)C1CCC2=O (stereo not drawn) | > 20 µM | > 20 µM |
| CC1(C)OC2CC3C4CC(F)C5=CC(=O)C=CC5(C)C4(Cl)C(Cl)CC3(C)C2(C(=O)CCl)O1 (stereo not drawn) | > 20 µM | > 20 µM |
| C=CCNC1=C2C[C@@H](C)C[C@H](OC)[C@H](O)[C@@H](C)/C=C(/C)[C@H](OC(N)=O)[C@@H](OC)/C=C\C=C(\C)C(=O)NC(=CC1=O)C2=O | > 20 µM | > 20 µM |
| CCC1(O)CC2CN(CCc3c([nH]c4ccccc34)C(C(=O)OC)(c3cc4c(cc3OC)N(C)C3C(O)(C(=O)OC)C(OC(C)=O)C5(CC)C=CCN6CCC43C65)C2)C1 (stereo not drawn) | > 20 µM | > 20 µM |
| CC[C@H]1OC(=O)[C@H](C)[C@@H](O[C@H]2C[C@@](C)(OC)[C@@H](O)[C@H](C)O2)[C@H](C)[C@@H](O[C@@H]2O[C@H](C)C[C@H](N(C)C)[C@H]2O)[C@](C)(O)C[C@@H](C)C(=O)[C@H](C)[C@H]2OC(=O)O[C@@]21C | > 20 µM | > 20 µM |
| CC12C=CC(=O)C=C1[C@@H](F)CC1C2C(O)CC2(C)C1CCC2(O)C(=O)CO (stereo partly drawn) | > 20 µM | > 20 µM |
| CC[C@@H](C)n1ncn(-c2ccc(N3CCN(c4ccc(OC[C@H]5CO[C@@](Cn6cncn6)(c6ccc(F)cc6F)O5)cc4)CC3)cc2)c1=O | > 20 µM | > 20 µM |
| CCCCCC(=O)CCC1(C)C2Cc3ccc(O)cc3C1(C)CCN2C (stereo not drawn) | > 20 µM | > 20 µM |
| COC1C(C)OC(OC2C=C3CCC4C(CCC5(C)C(c6ccc(=O)oc6)CCC45O)C3(C)CC2)C(O)C1O (stereo not drawn) | > 20 µM | > 20 µM |
| CO[C@H]1/C=C\O[C@@]2(C)Oc3c(C)c(O)c4c(=O)c(c5oc6cc(N7CCN(CC(C)C)CC7)cc(O)c6nc-5c4c3C2=O)NC(=O)/C(C)=C\C=C/[C@H](C)[C@H](O)[C@@H](C)[C@@H](O)[C@@H](C)[C@H](OC(C)=O)[C@@H]1C | > 20 µM | > 20 µM |
| CC1CC(OC(=O)c2ccccc2)CC(C)(C)N1 (stereo not drawn) | > 20 µM | > 20 µM |
| C/C=C1/C[C@@H](C)[C@](O)(CO)C(=O)OCC2=CCN3CC[C@@H](OC1=O)[C@@H]23 | > 20 µM | > 20 µM |
| Cc1c(-c2cccnc2)n(CCCCCCCC(=O)O)c2ccccc12 | > 20 µM | > 20 µM |
| CCc1c(C(=O)c2cc(C)cc(C)c2)n(CC2CC=CC2)c(=O)[nH]c1=O | > 20 µM | > 20 µM |
| COc1ccccc1-c1coc2cc(O)ccc2c1=O | > 20 µM | > 20 µM |
| C[C@@H](N)C(=O)N[C@@H](Cc1ccccc1)C(=O)O | > 20 µM | > 20 µM |
